Source: patent US20210379020A1, “COMPOUNDS FOR THE TREATMENT OF MALARIA” (Merck Sharp & Dohme Corp., priority 2016, published 2021)

What follows are compounds tested on asexual P. falciparum 3D7 parasites (assay: P. falciparum growth inhibition assay with LDH activity readout (Assay 1)). Conditions: 3D7 strain, 72 h incubation, LDH activity read by absorbance at 650 nm.
Format: cell-based, Plasmodium falciparum
Protocol: A modified version of the assay described in Gamo, F. J., Sanz, L. M., Vidal, J., de Cozar, C., Alvarez, E., Lavandera, J. L., Vanderwall, D. E., Green, D. V., Kumar, V., Hasan, S., Brown, J. R., Peishoff, C. E., Cardon, L. R., Garcia-Bustos, J. F., Nature, 465 (2010) 305-310 (Gamo et al.) was used to assess the activity of compounds against asexual P. falciparum 3D7 parasites. Compounds were pre-dispensed in 384-well plates, RPMI/AlbuMAX growth media was added and P. falciparum inoculated. Plates were incubated for 72 h and then frozen at −80° C. overnight. LDH activity was quantified with the modified cofactor 3-acetylpyridine adenine dinucleotide (APAD) (Sigma Aldrich) by measuring absorbance of the tetrazolium indicator nitro blue tetrazolium (NBT) (Sigma Aldrich) at 650 nm.
An inoculum of synchronous P. falciparum (3D7 strain) parasitized red blood cells (PRBC) at 0.7% parasitaemia and 2% haematocrit in RPMI-1640, 5% AlbuMAX, 2% D-sucrose, 0.3% glutamine and 150 μM hypoxanthine was used for the assay.
Compound master plates (384-well) were prepared by a 10 pt serial dilution of compounds, from 1 mM to 50.8 nM, in columns 3-12 and 13-22. DMSO was dispensed into columns 1 and 23 of the compound master plate to be used as the positive growth control (100% viability). […] Intermediate compound dilution plates were prepared by dispensing 1 μl from each well of the compound master plate into 11.5 μl of RPMI/AlbuMAX growth media. Duplicate assay plates (384-well) were then prepared by dispensing 0.5 μL of compound from the intermediate dilution plates into 9.5 μl of RPMI/AlbuMAX growth media. The parasite inoculum (30 μL) was dispensed into the assay plates containing compounds using a Multidrop dispenser (Thermo Scientific) such that the final assay volume was 40 μL and final compound concentration was 1 μM-0.05 nM (the volume of compound addition can be adjusted to the preferred and agreed screening concentration). The final DMSO concentration was 0.1% (ideally 0.2% to limit toxicity to parasites), but this is dependent on volume of compound DMSO stock solution that can be supplied. Plates were incubated at 37° C. for 72 h in an atmosphere of 5% CO2, 5% O2, […].
After 72 h of incubation, plates were frozen at −80° C. overnight and then thawed at room temperature for at least 4 h. To evaluate LDH activity, 45 μL of freshly made reaction mix (174 mM sodium L-lactate (Sigma Aldrich), 214 μM 3-acetyl pyridine adenine dinucleotide (APAD) (Sigma Aldrich), 270 μM nitro blue tetrazolium chloride (NBT) (Sigma Aldrich), 4.35 U/mL diaphorase (from Clostridium kluyveri) (Sigma Aldrich), 0.7% Tween 20, 100 mM Tris-HCl pH 7.5) was dispensed using a Multidrop dispenser (Thermo Scientific). Plates were shaken to ensure mixing and absorbance at 650 nm was monitored using a Perkin Elmer Envision plate reader after 30 min of incubation at room temperature. Data were normalized to percent growth inhibition using positive and negative controls, and analysed using TIBCO Spotfire software.
P. falciparum 3D7 strain was grown as described in Assay 1, at 37° C. for 72 hours. The culture was frozen at −80° C. overnight. Cultures were thawed at room temperature for at least 4 hours and the reaction mixture described in Assay 1 was made in order to measure the possible direct inhibition of LDH by the following compounds, assayed as above in Assay 1.

Row | SMILES | IC50 [nM]
1 | CC(C)CC[C@]1(c2ccccc2)NC(=N)N(Cc2ccc(C(F)(F)F)c(C(=O)N3CC(O)C(F)C3)c2)C1=O (some centres unmarked) [Compound 3] | 9.6
2 | N=C1NC(C[C@@H]2CCCO2)(c2ccccc2)C(=O)N1Cc1ccc(C(F)(F)F)c(C(=O)N2Cc3nccnc3C2)c1 (some centres unmarked) [Compound 2] | 5.8
3 | CC(=O)N1CCN(C(=O)c2cc(F)cc(CN3C(=N)NC(c4ccccc4)(c4ccccc4)C3=O)c2)CC1 [Compound 1] | 4.5
4 | N=C1NC(c2ccc(F)cc2)(C2CCCCC2)C(=O)N1Cc1ccc(C(F)(F)F)c(C(=O)N2Cc3nccnc3C2)c1 (centres unmarked) [Compound 4] | 9.7
5 | CC(C)CC[C@]1(c2ccccc2)NC(=N)N(Cc2ccc(C(C)(C)C)c(C(=O)NCc3cccnc3)c2)C1=O [Compound 11] | 172
